Laboratory results from patent US20230106583A1, “HETEROARYL COMPOUNDS” (Vivace Therapeutics, Inc., priority 2019, published 2023).

system: HEK293T cells stably transfected with 8XTBD luciferase reporter and pRLTK; test: YAP Reporter Assay (8XTBD-driven firefly luciferase); format: cell-based; settings: Homo sapiens, HEK-293T; HEK293T 8XTBD luciferase reporter; 24-hr incubation with compounds; top concentration 3 μM, 10 points
Procedure: HEK293T cells stably transfected with 8XTBD luciferase reporter and pRLTK in 384-well plates were treated with the test compounds, starting from 3 μM (final concentration in assay plate), 1:3 dilution, and 10 points in quadruplicates. Post 24-hr incubation with compounds at 37° C. and 5% CO2, cells were lysed and 8XTBD-driven firefly luciferase and control TK-driven renilla luciferase activities were measured using Promega Dual-Luciferase Reporter Assay System.
Reagents: The reagents used for this study are: DMEM: Invitrogen #11960077, Dual-Glo Luciferase Assay System: Promega-E2980, Puromycin Dihydrochloride: Invitrogen-A1113803, 384-well plate: PerkinElmer-6007480, L-GLUTAMINE: Invitrogen-25030164, Hygromycin B: Invitrogen-10687010, and Penicillin-Streptomycin: Merk-TMS-AB2-C
Media: The media used for this assay were: Culture Medium: DMEM+1 ug/mL puromycin+200 ug/mL hygromycin (with 10% FBS+1 mM L-glutamine); and Assay Medium: DMEM (with 10% FBS+1 mM L-glutamine+1×P/S).
Cell Plating: The appropriate media was warmed at 37° C. by water bath: Culture Medium, Assay Medium, 1*D-PBS, 0.05% trypsin-EDTA. The cells were trypsinized after removing all media, then washed with 1*sterile D-PBS and then with 2 ml 0.05% trypsin-EDTA. The cells were then incubated at RT for one minute. Then 10 ml/75 cm2 flask Assay Medium was added to each flask. Using a 10 ml pipette, the cells were then gently resuspended in the media, until the clumps completely disappeared. The cells were then transferred into 50 ml centrifuge tubes and were centrifuged at 800 rpm for 5 mins. The medium was removed and the cells were resuspended with Assay Medium. An aliquot of cells was used to count the cell density (cells/ml). The cell suspension was then diluted with Assay Medium to a concentration of 6×10^4 cells/ml. 50 ul cells suspension was then plated to 384-well plate (PerkinElmer-6007480), 3×10^3 cells/well and the cells were incubated in an incubator at 37° C., 5% CO2.
Compound Treatment: In the afternoon (incubation of the plate with 3-4 hrs), the test compounds were added by Echo, starting from 3 uM (final concentration in the assay plate), 1:3 dilution, 10 points, quadruplicates. The plate was placed at 37° C., 5% CO2 incubator for 24 hrs.
Detection: The Dual-Glo Luciferase Reagent was prepared by transferring the contents of one bottle of Dual-Glo Luciferase Buffer to one bottle of Dual-Glo Luciferase Substrate to create the Dual-Glo Luciferase Reagent. Mixing was performed by inversion until the substrate was thoroughly dissolved. After mixing, the reagent was aliquoted into 15 ml tubes. In the afternoon (24 hrs post compound treatment), the DMEM+medium in the 384 well plates were aspirated by Microplate Washer.
Measuring firefly luciferase activity: 20 ul Dual-Glo Luciferase Reagent was added to the 384-well plates. The plates were protected from light to prevent interference with the assay. The plates were shaken for 1 min followed centrifuging plates at 1000 rpm for 30 seconds. After waiting at least 10 minutes, the firefly luminescence was measured by Envision.
Measuring renilla luciferase activity: 20 ul Stop-Glo Reagent was added to the 384-well plates. The plates were shaken for 1 min and then centrifuged at 1000 rpm for 30 seconds. After waiting at least 10 minutes, the renilla luminescence was measured by Envision.
Compound IC50 and maximum inhibition on the firefly luciferase and renilla luciferase activities were reported separately.

Structure (SMILES) | IC50
CC[C@]1(c2nnc(-c3cccnc3Nc3ccc(S(F)(F)(F)(F)F)cc3)o2)CCNC1=O [Compound 23, (3R)-3-ethyl-3-[5-[2-[4-(pentafluoro-λ^6-sulfanyl)anilino]-3-pyridyl]-1,3,4-oxadiazol-2-yl]pyrrolidin-2-one] | 0.1 to 1 µM
C[C@]1(c2nnc(-c3cccnc3Nc3ccc(C(F)(F)F)cc3)o2)CCNC1=O [Compound 12, (R)-3-methyl-3-(5-(2-((4-(trifluoromethyl)phenyl)amino)pyridin-3-yl)-1,3,4-oxadiazol-2-yl)pyrrolidin-2-one] | ≤ 0.1 µM
CNCc1nnc(-c2cccnc2Nc2ccc(C(F)(F)F)cc2)o1 [Compound 9, 3-[5-(methylaminomethyl)-1,3,4-oxadiazol-2-yl]-N-[4-(trifluoromethyl)phenyl]pyridin-2-amine] | 0.1 to 1 µM
CNCc1nnc(-c2nccnc2Nc2ccc(C(F)(F)F)cc2)o1 [Compound 48, 3-[5-(methylaminomethyl)-1,3,4-oxadiazol-2-yl]-N-[4-(trifluoromethyl)phenyl]pyrazin-2-amine] | 1 to 3 µM
CN1CCNC(=O)C1(C)c1nnc(-c2cccnc2Nc2ccc(C(F)(F)F)cc2)o1 (stereo not drawn) [Compound 25, 3,4-dimethyl-3-[5-[2-[4-(trifluoromethyl)anilino]-3-pyridyl]-1,3,4-oxadiazol-2-yl]piperazin-2-one] | 0.1 to 1 µM
CC[C@]1(c2nnc(-c3cccnc3Nc3ccc(S(F)(F)(F)(F)F)cc3)o2)CCCNC1=O [Compound 22, (3R)-3-ethyl-3-[5-[2-[4-(pentafluoro-λ6-sulfanyl)anilino]-3-pyridyl]-1,3,4-oxadiazol-2-yl]piperidin-2-one] | 0.1 to 1 µM
C[C@]1(c2nnc(-c3cccnc3Nc3ccc(S(F)(F)(F)(F)F)cc3)o2)CCCNC1=O [Compound 29, (3R)-3-methyl-3-[5-[2-[4-(pentafluoro-λ^6-sulfanyl)anilino]-3-pyridyl]-1,3,4-oxadiazol-2-yl]piperidin-2-one] | ≤ 0.1 µM
C[C@@]1(c2nnc(-c3cccnc3Nc3ccc(C(F)(F)F)cc3)o2)CCCNC1=O [Compound 39, (S)-3-methyl-3-(5-(2-((4-(trifluoromethyl)phenyl)amino)pyridin-3-yl)-1,3,4-oxadiazol-2-yl)piperidin-2-one] | ≤ 0.1 µM
CN(C#N)CCc1nnc(-c2cccnc2Nc2ccc(C(F)(F)F)cc2)o1 [Compound 16, methyl-[2-[5-[2-[4-(trifluoromethyl)anilino]-3-pyridyl]-1,3,4-oxadiazol-2-yl]ethyl]cyanamide] | ≤ 0.1 µM
